# Laboratory results from ChEMBL document CHEMBL1141299, “Hologram QSAR model for the prediction of human oral bioavailability” (Bioorg Med Chem, 2007).
# Experiment: Oral bioavailability in human
# Conditions: in vivo
row,SMILES,bioavailability [%]
1,O=C(O[C@H]1C[C@H]2CC[C@@H](C1)[N+]21CCCC1)C(O)(c1ccccc1)c1ccccc1 [TROSPIUM],9.6
2,C[N+]1(CC2CC2)[C@@H]2C[C@@H](OC(=O)[C@H](CO)c3ccccc3)C[C@H]1[C@@H]1O[C@@H]12.[Br-] (some centres not stated) [CIMETROPIUM BROMIDE],2
3,N[C@H](Cc1ccc(N(CCCl)CCCl)cc1)C(=O)O,71
4,OCCN1CCN(CCCN2c3ccccc3Sc3ccc(C(F)(F)F)cc32)CC1 [FLUPHENAZINE],2.7
5,Cc1ccc(-c2nc3ccc(C)cn3c2CC(=O)N(C)C)cc1 [ZOLPIDEM],72
6,COc1c(N2CCN[C@H](C)C2)c(F)cc2c(=O)c(C(=O)O)cn(C3CC3)c12 [(R)-GATIFLOXACIN],96
7,CN(C)CCC[C@]1(c2ccc(F)cc2)OCc2cc(C#N)ccc21 [(R)-CITALOPRAM],80
8,O=C1CN=C(c2ccccc2)c2cc([N+](=O)[O-])ccc2N1 [NITRAZEPAM],78
9,O=C1CC[C@@]2(O)[C@H]3Cc4ccc(O)c5c4[C@@]2(CCN3CC2CC2)[C@H]1O5 [NALTREXONE],20
10,CCC1(c2ccccc2)C(=O)NC(=O)NC1=O [PHENOBARBITAL],96
11,CN1C(=O)[C@H](O)N=C(c2ccccc2Cl)c2cc(Cl)ccc21 [(S)-LORMETAZEPAM],75
12,Cc1c(OCC(F)(F)F)ccnc1C[S+]([O-])c1nc2ccccc2[nH]1 (configuration not stated) [LANSOPRAZOLE],80
13,CCOC(=O)C1=C[C@@H](OC(CC)CC)[C@H](NC(C)=O)[C@@H](N)C1 [OSELTAMIVIR],75
14,c1ccc(C2(N3CCCCC3)CCCCC2)cc1 [PHENCYCLIDINE],72
15,Cc1ccnc2c1NC(=O)c1cccnc1N2C1CC1 [NEVIRAPINE],93
16,CN1CCN(C2=Nc3cc(Cl)ccc3Nc3ccccc32)CC1 [CLOZAPINE],55
17,Cc1nnc2n1-c1ccc(Cl)cc1C(c1ccccc1Cl)=NC2 [TRIAZOLAM],44
18,CCC(=O)C(C[C@@H](C)N(C)C)(c1ccccc1)c1ccccc1 [LEVOMETHADONE],92
19,COc1ccc([C@@H](CN(C)C)C2(O)CCCCC2)cc1 [(S)-VENLAFAXINE],45

# Same assay, conditions: in vivo, F
row,SMILES,bioavailability [%]
1,CC(C)(C)NC[C@@H](O)c1ccc(O)c(CO)c1 [(S)-ALBUTEROL],71
2,C[C@@H](C(=O)O)c1ccc(-c2ccccc2)c(F)c1 [TARENFLURBIL],92
3,CNCCCC1c2ccccc2C=Cc2ccccc21 [PROTRIPTYLINE],85
4,CC[C@H]1OC(=O)[C@H](C)[C@@H](O[C@H]2C[C@@](C)(OC)[C@@H](O)[C@H](C)O2)[C@H](C)[C@@H](O[C@@H]2O[C@H](C)C[C@H](N(C)C)[C@H]2O)[C@](C)(OC)C[C@@H](C)C(=O)[C@H](C)[C@@H](O)[C@]1(C)O [CLARITHROMYCIN],50
5,C[C@H]1C[C@@H]2[C@H]([C@@H](O)C[C@@]3(C)[C@H]2CC[C@]3(O)C(=O)CO)[C@@]2(C)C=CC(=O)C=C12 [METHYLPREDNISOLONE],82
6,CC(C)COC[C@H](CN(Cc1ccccc1)c1ccccc1)N1CCCC1,60
7,O=C(O)c1cc(-c2ccc(F)cc2F)ccc1O [DIFLUNISAL],100
8,COC(=O)C1=C(C)NC(C)=C(C(=O)OC(C)C)[C@@H]1c1cccc2nonc12 [(R)-ISRADIPINE],19.5
9,N#Cc1ccc(C(c2ccc(C#N)cc2)n2cncn2)cc1 [LETROZOLE],99.9
10,CS(=O)(=O)c1ccc(C2=C(c3ccccc3)C(=O)OC2)cc1 [ROFECOXIB],93
11,CCCc1nc(C(C)(C)O)c(C(=O)O)n1Cc1ccc(-c2ccccc2-c2nnn[nH]2)cc1 [OLMESARTAN],26
12,CC(=O)[C@]1(O)Cc2c(O)c3c(c(O)c2[C@@H](O[C@H]2C[C@H](N)[C@H](O)[C@H](C)O2)C1)C(=O)c1ccccc1C3=O [IDARUBICIN],28
13,CCCCCCCCCCCCCCCC(=O)OC[C@@H](NC(=O)C(Cl)Cl)[C@H](O)c1ccc([N+](=O)[O-])cc1 [CHLORAMPHENICOL PALMITATE],80
14,Cc1cccc(C)c1OC[C@H](C)N [(S)-MEXILETINE],87
15,COc1cc2nc(N3CCN(C(=O)c4ccco4)CC3)nc(N)c2cc1OC [PRAZOSIN],68
16,CC(C)Cc1ccc([C@H](C)C(=O)O)cc1 [DEXIBUPROFEN],80
17,O=C1Cc2cc(CCN3CCN(c4nsc5ccccc45)CC3)c(Cl)cc2N1 [ZIPRASIDONE],60
18,C[C@@H](C(=O)O)c1ccc(C(=O)c2cccs2)cc1 [(R)-SUPROFEN],92
19,CCN1C[C@@H](CCN2CCOCC2)C(c2ccccc2)(c2ccccc2)C1=O [(S)-DOXAPRAM],61

row,SMILES,bioavailability [%]
1,Cc1onc(-c2c(F)cccc2Cl)c1C(=O)N[C@@H]1C(=O)N2[C@@H]1SC(C)(C)[C@@H]2C(=O)O [FLOXACILLIN],49
2,"CCCNC1CCc2nc(N)sc2C1 (single isomer, unassigned) [PRAMIPEXOLE]",90
3,COc1ccc(OC)c([C@H](O)CNC(=O)CN)c1 [(S)-MIDODRINE],93
4,C[C@H](O)Cn1cnc2c1c(=O)n(C)c(=O)n2C [(S)-PROXYPHYLLINE],100
5,Cc1cn([C@H]2C=C[C@@H](CO)O2)c(=O)[nH]c1=O [STAVUDINE],82
6,C[C@H]1O[C@@H](O[C@H]2[C@@H](O)C[C@H](O[C@H]3[C@@H](O)C[C@H](O[C@H]4CC[C@@]5(C)[C@H](CC[C@@H]6[C@@H]5C[C@@H](O)[C@]5(C)[C@@H](C7=CC(=O)OC7)CC[C@]65O)C4)O[C@@H]3C)O[C@@H]2C)C[C@H](O)[C@@H]1O [DIGOXIN],95
7,Cc1cc2c(OC[C@H](O)CNC(C)C)cccc2[nH]1 [(R)-MEPINDOLOL],82
8,O=C1NS(=O)(=O)c2ccccc21 [SACCHARIN],84
9,CC(C)(O)c1ccccc1CC[C@@H](SCC1(CC(=O)O)CC1)c1cccc(/C=C/c2ccc3ccc(Cl)cc3n2)c1 [MONTELUKAST],73
10,CC[C@@]1(O)C(=O)OCc2c1cc1n(c2=O)Cc2cc3c(CN(C)C)c(O)ccc3nc2-1 [TOPOTECAN],32
11,O[C@@](CCN1CCCC1)(c1ccccc1)C1CCCCC1 [(R)-PROCYCLIDINE],75
12,CCCC(CCC)C(=O)O [VALPROIC ACID],90
13,COc1ccccc1Oc1c(NS(=O)(=O)c2ccc(C(C)(C)C)cc2)nc(-c2ncccn2)nc1OCCO [BOSENTAN],50
14,C[C@]12C=CC(=O)C=C1CC[C@@H]1[C@@H]2C(=O)C[C@@]2(C)[C@H]1CC[C@]2(O)C(=O)CO [PREDNISONE],80
15,CC(=O)S[C@@H]1CC2=CC(=O)CC[C@]2(C)[C@H]2CC[C@@]3(C)[C@@H](CC[C@@]34CCC(=O)O4)[C@H]12 [SPIRONOLACTONE],25
16,CS(=O)(=O)c1ccc2c(c1)N(CCCN1CCC(C(N)=O)CC1)c1ccccc1S2 [METOPIMAZINE],19
17,C[C@@H](CN1c2ccccc2Sc2ccccc21)N(C)C [(S)-PROMETHAZINE],25
18,COc1cc(Cc2cnc(N)nc2N)cc(OC)c1OC [TRIMETHOPRIM],63
19,O=C(N[C@H](CO)[C@H](O)c1ccc([N+](=O)[O-])cc1)C(Cl)Cl [CHLORAMPHENICOL],69
